Patent publication US20040006070A1, “Intraspinal continuous infusion of midazolam hydrochloride for the treatment of pain” (priority 2002, published 2004)
Structures can show the parent of a compound that is named as a salt.

Assay: Bloodwork: complete blood count, electrolytes, extended blood chemistry
Assay type: in vivo, sheep
Settings: for Total Bili: ref 0.14-0.32; for Creatinine: ref 1-2.7; for Albumin: ref 2.4-3; for K+: ref 3.9-5.4; for Phos: ref 5-7.3; for Total Prot: ref 6-7.9
Method: Indirect blood pressure, pulse recording, pain testing (mechanical stimulus device, cold and warm water baths see description in procedure) and weight were taken on days 1, 3, 7, 15, 22, 29, 36, and 43. Venous blood samples (15 ml drawn from the jugular vein with Vacutainer brand blood collection tubes) for complete blood count, electrolytes, and extended blood chemistry were drawn on days 1, 15, and 43 (mild procedure only light hand restraint necessary).

With Cc1ncc2n1-c1ccc(Cl)cc1C(c1ccccc1F)=NC2 [Midazolam, midazolam hydrochloride] the MCH (sheep #498, 10 mg/day, Day 43) was 9.3 pg, the MCHC (sheep #498, 10 mg/day, Day 43) was 30.3 g/dL and the MCV (sheep #498, 10 mg/day, Day 43) was 30.9 fL. For the same compound, the “Na+” value (sheep #498, 10 mg/day, Day 43) was 148 mEq/l, the RBC (sheep #498, 10 mg/day, Day 43) was 1.003e+07 µL⁻¹ and the WBC (sheep #498, 10 mg/day, Day 43) was 9700 µL⁻¹. The “Total Bili” value (sheep #498, 10 mg/day, Day 43) was 0.1 mg/dL, the Creatinine (sheep #498, 10 mg/day, Day 43) was 1.5 mg/dL and the Albumin (sheep #498, 10 mg/day, Day 43) was 3.6 g/dL. For the same compound, the “K+” value (sheep #498, 10 mg/day, Day 43) was 4.0 mEq/l, the Phos (sheep #498, 10 mg/day, Day 43) was 5.8 Mg/dl and the “Total Prot” value (sheep #498, 10 mg/day, Day 43) was 6.1 g/dL. For the same compound, the “Platlet Count” value (sheep #498, 10 mg/day, Day 43, result in words) was “Ade-”, the ALT (sheep #518, 5 mg/day, Day 1) was 12.0 U/L and the AST (sheep #518, 5 mg/day, Day 1) was 112 U/L. For the same compound, the “Alk Phos” value (sheep #518, 5 mg/day, Day 1) was 157 U/L, the BUN (sheep #518, 5 mg/day, Day 1) was 15 mg/dL and the CPK (sheep #518, 5 mg/day, Day 1) was 148 U/L. For the same compound, the Cholesterol (sheep #518, 5 mg/day, Day 1) was 96 mg/dL, the “Differential Count: Eosin” value (sheep #518, 5 mg/day, Day 1) was 1% and the “Differential Count: Lymph” value (sheep #518, 5 mg/day, Day 1) was 29%. The “Differential Count: Seg” value (sheep #518, 5 mg/day, Day 1) was 70%, the “Gamma GT” value (sheep #518, 5 mg/day, Day 1) was 79 U/L and the Glucose (sheep #518, 5 mg/day, Day 1) was 8.8 mg/dL. For the same compound, the Hct (sheep #518, 5 mg/day, Day 1) was 35.0%, the Hgb (sheep #518, 5 mg/day, Day 1) was 12.2 g/dL and the MCH (sheep #518, 5 mg/day, Day 1) was 9.6 pg. For the same compound, the MCHC (sheep #518, 5 mg/day, Day 1) was 31.4 G/dl, the MCV (sheep #518, 5 mg/day, Day 1) was 30.6 fL and the “Na+” value (sheep #518, 5 mg/day, Day 1) was 154 mEq/l. For the same compound, the “Platlet Count” value (sheep #518, 5 mg/day, Day 1) was 642000 µL⁻¹, the RBC (sheep #518, 5 mg/day, Day 1) was 1.144e+07 µL⁻¹ and the WBC (sheep #518, 5 mg/day, Day 1) was 8400 µL⁻¹. For the same compound, the “Total Bili” value (sheep #518, 5 mg/day, Day 1) was 0.2 mg/dL, the Creatinine (sheep #518, 5 mg/day, Day 1) was 1.1 mg/dL and the Albumin (sheep #518, 5 mg/day, Day 1) was 3.6 G/dl. For the same compound, the “K+” value (sheep #518, 5 mg/day, Day 1) was 4.9 mEq/l, the Phos (sheep #518, 5 mg/day, Day 1) was 7.2 mg/dL and the “Total Prot” value (sheep #518, 5 mg/day, Day 1) was 7.0 G/dl. The ALT (sheep #518, 5 mg/day, Day 3) was 10.0 U/L, the AST (sheep #518, 5 mg/day, Day 3) was 99 U/L and the “Alk Phos” value (sheep #518, 5 mg/day, Day 3) was 99 U/L. It also gave a BUN (sheep #518, 5 mg/day, Day 3) of 5 mg/dL, a CPK (sheep #518, 5 mg/day, Day 3) of 834 U/L and a Cholesterol (sheep #518, 5 mg/day, Day 3) of 87 mg/dL. The “Differential Count: Atyp lym” value (sheep #518, 5 mg/day, Day 3) was 1%, the “Differential Count: Eosin” value (sheep #518, 5 mg/day, Day 3) was 1% and the “Differential Count: Lymph” value (sheep #518, 5 mg/day, Day 3) was 47%. For the same compound, the “Differential Count: Seg” value (sheep #518, 5 mg/day, Day 3) was 51%, the “Gamma GT” value (sheep #518, 5 mg/day, Day 3) was 79 U/L and the Glucose (sheep #518, 5 mg/day, Day 3) was 122 mg/dL. It also gave a Hct (sheep #518, 5 mg/day, Day 3) of 33.0%, a Hgb (sheep #518, 5 mg/day, Day 3) of 11.3 g/dL and an MCH (sheep #518, 5 mg/day, Day 3) of 9.3 pg. The MCHC (sheep #518, 5 mg/day, Day 3) was 30.1 G/dl, the MCV (sheep #518, 5 mg/day, Day 3) was 30.7 fL and the “Na+” value (sheep #518, 5 mg/day, Day 3) was 151 mEq/l. The “Platlet Count” value (sheep #518, 5 mg/day, Day 3) was 546000 µL⁻¹, the RBC (sheep #518, 5 mg/day, Day 3) was 1.075e+07 µL⁻¹ and the WBC (sheep #518, 5 mg/day, Day 3) was 6400 µL⁻¹. The “Total Bili” value (sheep #518, 5 mg/day, Day 3) was 0.1 mg/dL, the Creatinine (sheep #518, 5 mg/day, Day 3) was 1.4 mg/dL and the Albumin (sheep #518, 5 mg/day, Day 3) was 3.8 G/dl. The “K+” value (sheep #518, 5 mg/day, Day 3) was 4.4 mEq/l, the Phos (sheep #518, 5 mg/day, Day 3) was 5.7 mg/dL and the “Total Prot” value (sheep #518, 5 mg/day, Day 3) was 6.6 G/dl. For the same compound, the ALT (sheep #518, 5 mg/day, Day 15) was 13.0 U/L, the AST (sheep #518, 5 mg/day, Day 15) was 74 U/L and the “Alk Phos” value (sheep #518, 5 mg/day, Day 15) was 100 U/L. For the same compound, the BUN (sheep #518, 5 mg/day, Day 15) was 13 mg/dL, the CPK (sheep #518, 5 mg/day, Day 15) was 172 U/L and the Cholesterol (sheep #518, 5 mg/day, Day 15) was 83 mg/dL. The “Differential Count: Eosin” value (sheep #518, 5 mg/day, Day 15) was 5% and the “Differential Count: Lymph” value (sheep #518, 5 mg/day, Day 15) was 62%.
